Calls of active or inactive are those of the source. The rule behind the calls is not given here.

System in the first series: not listed separately
Nature of the series: Protective index, ratio of TD50 for neurotoxicity to ED50 for anticonvulsant activity in Mus musculus Kunming (mouse). It counts as toxicity, organism-based. The following applies: in vivo, read-out: Ratio TD50/ED50.
`c1ccc(COc2cccc3c2cnc2ncnn23)cc1`: the selectivity ratio turned out to be 9.

The next series deals with Mus musculus. Nature of the series: Anticonvulsant activity in Mus musculus Kunming (mouse) assessed as protection against maximal electroshock-induced seizure at 100 mg/kg, ip administered 30 min prior to testing. Details: dose 100 mg/kg.
Details: not given
It is filed as functional, organism-based. In general terms: Protection in the maximal electroshock model is a classic sign of anticonvulsant action.
On to `Brc1ccccc1COc1cccc2c1cnc1ncnn12`, for which the outcome was inactive.
For the compound `N#Cc1ccccc1COc1cccc2c1cnc1ncnn12`, the outcome was inactive.
As for `CCCCCCCCOc1cccc2c1cnc1ncnn12`, the result was inactive.
Consider `N#Cc1ccc(COc2cccc3c2cnc2ncnn23)cc1`, for which the outcome was inactive.
The same measure, in the same setting: under `CCCCCCCCCCOc1cccc2c1cnc1ncnn12` stands “inactive”; under `c1ccc(COc2cccc3c2cnc2ncnn23)cc1`, “Active”.
On to `Clc1ccc(COc2cccc3c2cnc2ncnn23)cc1`, for which the result was inactive.
With `Fc1ccc(COc2cccc3c2cnc2ncnn23)cc1`, the result was inactive.
For `Fc1cccc(COc2cccc3c2cnc2ncnn23)c1`, the outcome was inactive.
As to `CCCCCCCOc1cccc2c1cnc1ncnn12`, the outcome was inactive.
For `Clc1cccc(COc2cccc3c2cnc2ncnn23)c1`, the result was inactive.
`Fc1ccccc1COc1cccc2c1cnc1ncnn12`: the outcome was inactive.
The same measure, in the same setting: with `CCCCCOc1cccc2c1cnc1ncnn12` the entry was “Active”.
Consider `CCCCOc1cccc2c1cnc1ncnn12`, for which the result was inactive.
On to `Clc1ccccc1COc1cccc2c1cnc1ncnn12`, for which the result was inactive.
Take `CCCCCCOc1cccc2c1cnc1ncnn12`: the outcome was inactive.
As for `Clc1ccc(COc2cccc3c2cnc2ncnn23)c(Cl)c1`, the outcome was inactive.
With `COc1ccc(COc2cccc3c2cnc2ncnn23)cc1`, the result was inactive.
For the compound `Cc1ccc(COc2cccc3c2cnc2ncnn23)cc1`, the result was inactive.

System in another series: not listed separately
The series can be described thus: Neurotoxicity against ip dosed Mus musculus Kunming (mouse) assessed as inability to maintain equilibrium on rod measured for 1 min by rota rod test. Conditions: in vivo. It is filed as toxicity, organism-based. For orientation: Falling from the rotarod earlier than controls is read as motor impairment.
Turning to `c1ccc(COc2cccc3c2cnc2ncnn23)cc1`, the TD50 (in general, the dose at which the toxic effect under study appears in half of the subjects) at 1 min came out at 710 mg/kg.
For the compound `NC(=O)N1c2ccccc2C=Cc2ccccc21` [CARBAMAZEPINE], the TD50 at 1 min is 76.1 mg/kg.

The test system of another series is Mus musculus. Nature of the series: Anticonvulsant activity in ip dosed Mus musculus Kunming (mouse) assessed as protection against maximal electroshock-induced seizure administered 30 min prior to testing. It counts as functional.
Details: not given
Regarding `c1ccc(COc2cccc3c2cnc2ncnn23)cc1`, the ED50 (as a rule, the midpoint of the dose-response relation) came to 78.9 mg/kg.
On the same count and under the same terms, with `NC(=O)N1c2ccccc2C=Cc2ccccc21` [CARBAMAZEPINE] the figure was 11.8 mg/kg.

Values taken from ChEMBL document CHEMBL3045370, “Design and synthesis of 6-alkyoxyl[1,2,4]triazolo[1,5-a]quinazoline derivatives with anticonvulsant activity” (Med Chem Res, 2012).
